These molecules were tested on RF strain of HIV-1 in CEM-SS cells (assay: HIV-1 cell protection assay (XTT dye reduction)). Conditions: Human immunodeficiency virus 1, CEM-SS, 144 h, HIV-1 RF, six days.
Type: cell-based
Description: HIV-1 Cell Protection Assay
The antiviral activities of potential modulator compounds (test compounds) were determined in HIV-1 cell protection assays using the RF strain of HIV-1, CEM-SS cells, and the XTT dye reduction method (Weislow, O. S. et al., J. Natl. Cancer Inst. 81: 577-586 (1989)). Subject cells were infected with HIV-1 RF virus at an moi of 0.025 to 0.819 or mock infected with medium only and added at 2×10^4 cells per well into 96 well plates containing half-log dilutions of test compounds. Six days later, 50 μl of XTT solution (1 mg/ml XTT tetrazolium and […] phenazine methosulfate) were added to the wells and the plates were reincubated for four hours. Viability, as determined by the amount of XTT formazan produced, was quantified spectrophotometrically by absorbance at 450 nm.
Data from CPE assays were expressed as the percent of formazan produced in compound-treated cells compared to formazan produced in wells of uninfected, compound-free cells. […] The therapeutic index was calculated by dividing the cytotoxicity (CC50) by the antiviral activity (EC50).
In the case of `COCCOCc1cn(Cc2ccc(F)cc2)c2cnc3c(=O)n(O)ccc3c12` [Example 9, 3-(4-fluorobenzyl)-7-hydroxy-1-[(2-methoxyethoxy)methyl]-3,7-dihydro-6H-pyrrolo[2,3-c]-1,7-naphthyridin-6-one], the EC50 is reported as 0.53 nM.
`C[C@@H](OCc1cn(Cc2ccc(F)cc2)c2cnc3c(=O)n(O)ccc3c12)c1ccccc1` [Example 38, 3-(4-fluorobenzyl)-7-hydroxy-1-{[(1R)-1-phenylethoxy]methyl}-3,7-dihydro-6H-pyrrolo[2,3-c]-1,7-naphthyridin-6-one] gave an EC50 of 0.3 nM.

Each molecule was assayed against T1, Full-length wild type HIV-1 integrase (SF1) (Human immunodeficiency virus type 1 group M subtype B, UniProt P04585) (assay: Integrase strand-transfer scintillation proximity assay). Conditions: IC50, integrase strand-transfer SPA.
T1 construct: made in house; host or cells: E. coli BL21 (DE3), pET24a vector
Type: biochemical
Excerpt: Integrase Strand-Transfer Scintillation Proximity Assay Oligonucleotides
The annealed product represents preprocessed viral ds-DNA derived from the LTR U5 sequence of the viral genome. A ds-DNA control to test for non-specific interactions was made using a 3′ di-deoxy derivative of oligonucleotide #1 annealed to oligonucleotide #2. The CA overhang at the 5′ end of the non-biotinylated strand of the ds-DNA was created artificially by using a complimentary DNA oligonucleotide shortened by 2 base pairs. This configuration eliminates the requisite 3′ processing step of the integrase enzyme prior to the strand-transfer mechanism.
Host ds-DNA was prepared as an unlabeled and [^3H]-thymidine labeled product from annealed oligonucleotide #3—5-[…]-3′ (SEQ ID NO: 3), and oligonucleotide #4—5′-[…]-3′ (SEQ ID NO: 4), both synthesized by TriLink BioTechnologies, Inc. (San Diego, Calif.). The annealed product had overhanging 3′ ends of poly(dA). […] The radiolabeled product was purified using a NENSORB cartridge and stored in stabilized aqueous solution (PerkinElmer).
Reagents: Streptavidin-coated polyvinyltoluene (PVT) SPA beads were purchased from Amersham Biosciences (Piscataway, N.J.). Cesium chloride was purchased from Shelton Scientific, Inc. (Shelton, Conn.). White, polystyrene, flat-bottom, non-binding surface, 96-well plates were purchased from Corning. All other buffer components were purchased from Sigma (St. Louis, Mo.) unless otherwise indicated. Enzyme Construction: Full-length wild type HIV-1 integrase (SF1) sequence (amino acids 1-288) was constructed in a pET24a vector (Novagen, Madison, Wis.). […] Enzyme Purification: Full length wild-type HIV Integrase was expressed in E.coli BL21 (DE3) cells and induced with 1 mM isopropyl-1 thio-β-D-galactopyranoside (IPTG) when cells reached an optical density between 0.8-1.0 at 600 nm. Cells were lysed by microfluidation in 50 mM HEPES pH 7.0, 75 mM NaCl, 5 mM DTT, 1 mM 4-(2-Aminoethyl)benzenesulfonylfluoride HCl (AEBSF). Lysate was then centrifuged 20 minutes at 11 k rpm in GSA rotor in Sorvall RC-5B at 4° C. Supernant was discarded and pellet resuspended in 50 mM HEPES pH 7.0, 750 mM NaCl, 5 mM DTT, 1 mM AEBSF and homogenized in a 40 mL Dounce homogenizer for 20 minutes on ice. Homogenate was then centrifuged 20 minutes at 11 k rpm in SS34 rotor in Sorvall RC-5B at 4° C. Supernant was discarded and pellet resuspended in 50 mM HEPES pH 7.0, 750 mM NaCl, 25 mM CHAPS, 5 mM DTT, 1 mM AEBSF. Preparation was then centrifuged 20 minutes at 11 k rpm in SS34 rotor in Sorvall RC-5B at 4° C.
Supernant was then diluted 1:1 with 50 mM HEPES pH 7.0, 25 mM CHAPS, 1 mM DTT, 1 mM AEBSF and loaded onto a Q-Sepharose column pre-equilibrated with 50 mM HEPES, pH 7.0, 375 mM NaCl, 25 mM CHAPS, 1 mM DTT, 1 mM AEBSF. The flow through peak was collected and NaCl diluted to 0.1 M with 50 mM HEPES pH 7.0, 25 mM CHAPS, 1 mM DTT, 0.5 mM AEBSF and loaded onto a SP-Sepharose column pre-equilibrated with 50 mM HEPES pH 7.0, 100 mM NaCl, 25 mM CHAPS, 1 mM DTT, 0.5 mM AEBSF. After washing the column with the equilibration buffer, a 100 to 400 mM NaCl gradient was run. The eluted integrase was concentrated and run on a S-300 gel diffusion column using 50 mM HEPES pH 7.0, 500 mM NaCl, 25 mM CHAPS, 1 mM DTT, 0.5 mM AEBSF. […] All columns were run in a 4° C. cold room.
Viral DNA Bead Preparation: Streptavidin-coated SPA beads were suspended to 20 mg/mL in 25 mM 3-morpholinopropanesulfonic acid (MOPS) (pH 7.2) and 1.0% NaN3.
`CN(Cc1ccccc1)Cc1cn(Cc2ccc(F)cc2)c2cnc3c(=O)n(O)ccc3c12` [Example 54, 1-{[benzyl(methyl)amino]methyl}-3-(4-fluorobenzyl)-7-hydroxy-3,7-dihydro-6H-pyrrolo[2,3-c]-1,7-naphthyridin-6-one] gave an IC50 of 13.5 nM.

Same assay, conditions: integrase strand-transfer SPA; read-out: IC50
For `COCCOCc1cn(Cc2ccc(F)cc2)c2cnc3c(=O)n(O)ccc3c12` [Example 9, 3-(4-fluorobenzyl)-7-hydroxy-1-[(2-methoxyethoxy)methyl]-3,7-dihydro-6H-pyrrolo[2,3-c]-1,7-naphthyridin-6-one], the IC50 was 15 nM.
`C[C@@H](OCc1cn(Cc2ccc(F)cc2)c2cnc3c(=O)n(O)ccc3c12)c1ccccc1` [Example 38, 3-(4-fluorobenzyl)-7-hydroxy-1-{[(1R)-1-phenylethoxy]methyl}-3,7-dihydro-6H-pyrrolo[2,3-c]-1,7-naphthyridin-6-one] gave an IC50 of 120 nM.
`O=c1c2ncc3c(c(CNCc4ccc(C(F)(F)F)cc4)cn3Cc3ccc(F)cc3)c2ccn1O` [Example 43, 3-(4-fluorobenzyl)-7-hydroxy-1-({[4-(trifluoromethyl)benzyl]amino}methyl)3,7-dihydro-6H-pyrrolo[2,3-c]-1,7-naphthyridin-6-one] gave an IC50 of 122 nM.
Work on `O=c1c2ncc3c(c(CNCc4ccccn4)cn3Cc3ccc(F)cc3)c2ccn1O` [Example 44] yielded an IC50 of 31 nM.
With `O=C1c2ncc3c(ccn3Cc3ccc(F)cc3)c2CCCN1O` [Example 45, 3-(4-fluorobenzyl)-7-hydroxy-7,8,9,10-tetrahydropyrrolo[3′,2′: 4,5]pyrido[2,3-c]azepin-6(3H)-one] the IC50 was 24 nM.
Molecule `CCCCc1cc2c(ncc3c2ccn3Cc2ccc(F)cc2)c(=O)n1O` [Example 46, 8-butyl-3-(4-fluorobenzyl)-7-hydroxy-3,7-dihydro-6H-pyrrolo[2,3-c]-1,7-naphthyridin-6-one] has an IC50 of 49 nM.
In the case of `Cc1cc2c(ncc3c2ccn3Cc2ccc(F)cc2)c(=O)n1O` [Example 47, 3-(4-fluorobenzyl)-7-hydroxy-8-methyl-3,7-dihydro-6H-pyrrolo[2,3-c]-1,7-naphthyridin-6-one], the IC50 is reported as 11 nM.
With `CCCN(CCO)Cc1cn(Cc2ccc(F)cc2)c2cnc3c(=O)n(O)ccc3c12` [Example 48, 3-(4-fluorobenzyl)-7-hydroxy-1-{[(2-hydroxyethyl)(propyl)amino]methyl}-3,7-dihydro-6H-pyrrolo[2,3-c]-1,7-naphthyridin-6-one] the IC50 was 11 nM.
Molecule `O=c1c2ncc3c(c(CN4CCCCC4CO)cn3Cc3ccc(F)cc3)c2ccn1O` (stereo not drawn) [Example 49, 3-(4-fluorobenzyl)-7-hydroxy-1-{[2-(hydroxymethyl)piperidin-1-yl]methyl}-3,7-dihydro-6H-pyrrolo[2,3-c]-1,7-naphthyridin-6-one] has an IC50 of 13 nM.
In the case of `CCN(CC)CCN(CC)Cc1cn(Cc2ccc(F)cc2)c2cnc3c(=O)n(O)ccc3c12` [Example 50, 1-{[[2-(diethylamino)ethyl] (ethyl)amino]methyl}-3-(4-fluorobenzyl)-7-hydroxy-3,7-dihydro-6H-pyrrolo[2,3-c]-1,7-naphthyridin-6-one], the IC50 is reported as 11.5 nM.
Molecule `CCN(Cc1ccc(C)cc1)Cc1cn(Cc2ccc(F)cc2)c2cnc3c(=O)n(O)ccc3c12` [Example 51, 1-{[ethyl(4-methylbenzyl)amino]methyl}-3-(4-fluorobenzyl)-7-hydroxy-3,7-dihydro-6H-pyrrolo[2,3-c]-1,7-naphthyridin-6-one] has an IC50 of 17.5 nM.
`CCS(=O)(=O)N1CCN(Cc2cn(Cc3ccc(F)cc3)c3cnc4c(=O)n(O)ccc4c23)CC1` [Example 52, 1-{[4-(ethylsulfonyl)piperazin-1-yl]methyl}-3-(4-fluorobenzyl)-7-hydroxy-3,7-dihydro-6H-pyrrolo[2,3-c]-1,7-naphthyridin-6-one] was tested, and the IC50 was 10.5 nM.
Molecule `O=c1c2ncc3c(c(CN4CCC(O)CC4)cn3Cc3ccc(F)cc3)c2ccn1O` [Example 53, 3-(4-fluorobenzyl)-7-hydroxy-1-[(4-hydroxypiperidin-1-yl)methyl]-3,7-dihydro-6H-pyrrolo[2,3-c]-1,7-naphthyridin-6-one] has an IC50 of 7 nM.
With `O=c1c2ncc3c(c(CN4CCN5C[C@H](O)CC5C4)cn3Cc3ccc(F)cc3)c2ccn1O` (stereo partly drawn) [Example 55, 3-(4-fluorobenzyl)-7-hydroxy-1-{[(7R)-7-hydroxyhexahydropyrrolo [1,2-a]pyrazin-2(1H)-yl]methyl}-3,7-dihydro-6H-pyrrolo[2,3-c]-1,7-naphthyridin-6-one] the IC50 was 7 nM.
In the case of `O=C1NC[C@@H]2CCN(Cc3cn(Cc4ccc(F)cc4)c4cnc5c(=O)n(O)ccc5c34)C[C@H]12` [Example 56, 3-(4-fluorobenzyl)-7-hydroxy-1-{[(3aR,7aR)-3-oxooctahydro-5H-pyrrolo[3,4-c]pyridin-5-yl]methyl}-3,7-dihydro-6H-pyrrolo[2,3-c]-1,7-naphthyridin-6-one], the IC50 is reported as 11.5 nM.
`O=c1c2ncc3c(c(CN4CCOCC4)cn3Cc3ccc(F)cc3)c2ccn1O` [Example 57, 3-(4-fluorobenzyl)-7-hydroxy-1-(morpholin-4-ylmethyl)-3,7-dihydro-6H-pyrrolo[2,3-c]-1,7-naphthyridin-6-one] showed an IC50 of 7 nM.
Work on `O=c1c2ncc3c(c(CN4CCN(CCN5CCOCC5)CC4)cn3Cc3ccc(F)cc3)c2ccn1O` [Example 58, 3-(4-fluorobenzyl)-7-hydroxy-1-{[4-(2-morpholin-4-ylethyl)piperazin-1-yl]methyl}-3,7-dihydro-6H-pyrrolo[2,3-c]-1,7-naphthyridin-6-one] yielded an IC50 of 22 nM.
Molecule `CN(Cc1cnn(-c2ccccc2)c1)Cc1cn(Cc2ccc(F)cc2)c2cnc3c(=O)n(O)ccc3c12` [Example 59, 3-(4-fluorobenzyl)-7-hydroxy-1-({methyl[(1-phenyl-1H-pyrazol-4-yl)methyl]amino}methyl)-3,7-dihydro-6H-pyrrolo[2,3-c]-1,7-naphthyridin-6-one] has an IC50 of 19 nM.

— patent US7692014B2, “Inhibitors of the HIV integrase enzyme” (Pfizer, Inc., priority 2004, dated 2010)
